# Reference: patent EP0042354A2, “Imidazobenzothiadiazepines, process for their preparation and pharmaceutical compositions containing them” (CIBA-GEIGY AG, priority 1980, dated 1981)
# Tests used:
# Assay type in all cases: in vivo
# Totenkopf-Aeffchen = assay: Extrapyramidal side effects and neurological symptoms observed in haloperidol-sensitised squirrel monkeys
# Description: Die bei den klassischen Neuroleptica bekannten extrapyramidalen Nebenwirkungen (ENW) lösen in Totenkopf-Aeffchen, welche vorher einer wiederholten antipsychotischen Behandlung unterworfen waren, charakteristische motorische Syndrome aus. Diese Bewegungsstörungen bestehen aus dystonischen Kõrperhaltungen und dyskinetischen Bewegungen, welche besser den bei Menschen auftretenden ENW entsprechen, als dies die Katalepsie oder Zittern tut. So können potentielle extrapyramidale Nebenwirkungen, aber gegebenenfalls auch andere neurologische Symptome, z.B. Ptosis, durch Beobachtung von ausgewachsenen Totenkopf-Aeffchen (von einem Gewicht von 700-1200 g) beurteilt werden. Die Tiere werden einmal wöchentlich oder einmal in zwei Wochen mit Haloperidol (1,25 mg/kg) behandelt. Nach einer derartigen Behandlung von ungefähr 2-4 Monaten treten 1-6 Stunden nach der Verabreichung von Haloperidol offensichtliche dystonische Körperhaltungen und dyskinetische Bewegungen auf. Sonst können in anderen Zeitpunkten keine abnormalen Bewegungen der Affen festgestellt werden. Nach dem Auftreten von, durch Haloperidol hervorgerufenen Dyskinesien, wird die oben geschilderte Behandlungsweise abgebrochen. Die Tiere erhalten nachher lediglich alle 4-8 Wochen 1,25 mg/kg Haloperidol und sie werden als Kontrolltiere bei der Untersuchung von Verbindungen dieser Erfindung eingesetzt.
# Die Affen werden in Intervallen von 2, 4 und 6 Stunden nach der Behandlung beurteilt. Die Versuche werden in verschlossenen Zellen, welche mit ferngesteuerten Video-Beobachtungsapparaten und mit einem einheitlichen Summton-Generator ausgerüstet sind, durchgeführt. Die Beurteilungen der Tiere werden durch zwei voneinander unabhängige Beobachter vorgenommen, welche keine Kenntnis von den verabreichten Verbindungen und vom Ziel des Versuchs haben. Während der neurologischen Untersuchungen werden die Affen von einer dritten Person behandelt. Zuerst werden die Tiere durch das Video-System beobachtet. Dann betreten die Beobachter die Versuchstelle und notieren die Reaktionen der Affen als "motorisch" (das Tier geht umher in der Zelle), "visuell" (eine offenbare Reaktion, jedoch kein Umhergehen) und "keine" (keine Reaktion). Es werden auch Aktivität, Köperhaltung, Zittern, vermehrter Speichelfluss und andere neurologische Symptome berücksichtigt. Besondere Beachtung wird dem Vorhandensein oder Abwesenheit von "bizarren", vorher genannten, distonischen Körperhaltungen und dyskinetischen Bewegungen gewidmet. Die die Tiere behandelnde Person nimmt dann den Affen aus der Zelle heraus. Dabei werden die Reaktionen des Affen auf die Annäherung der mit einem Handschuh geschützten Hand, auf die erste Berührung beim Anfassen undauf die Hemmnisse nach der Gefangennahme, separat aufgeschrieben. Die Vokalisation während der Gefangennahme wird auch beurtielt. Die Person, welche das Tier behandelt, wertet dann den Körpertonus und die Pupillengrösse aus und stellt fest, ob Ptosis vorhanden ist. Hat die vorhergehende Untersuchung nahegelegt, dass Katalepsie aufgetreten ist, so wird dieses Symptom ausgewertet. Der Affe wird zuerst, Kopf nach unten, auf den Boden, dann zum Zelleneingang und schliesslich in die Beobachtungszelle gestellt. Bleibt der Affe in allen diesen Stellungen mindestens 5 Sekunden im wesentlichen unbeweglich, so wird das Vorhandensein der Katalepsie bejaht. […]
# Ratten = assay: Sidman avoidance test (conditioned avoidance, lever press to postpone foot shock), rats; conditions: Rattus norvegicus, compound given 30, 90 and 210 min before the test, total dose, read-out: Gesamtdosis, welche die Vermeidungs-Reaktionen vermindert
# Description: (§1) Die Verbindungen der Erfindung zeigen wertvolle pharmakologische Eigenschaften, in erster Linie neuroleptische Wirkungen. Diese können in Tierversuchen, vorzugsweise an Säugern, z.B. Mäusen, Ratten oder Affen, als Testobjekte, nachgewiesen werden. Die genannten Verbindungen können ihnen enteral oder parenteral, vorzugsweise oral oder subkutan, intravenös oder intraperitoneal, z.B. durch Steckkapseln oder in Form von Stärke enthaltenden Suspensionen bzw. wässerigen Lösungen, verabreicht werden. Die verwendete Dosis kann in einem Bereich von ungefähr zwischen 0,01 und 100 mg/kg/Tag, vorzugsweise ungefähr 0,05 und 10 mg/kg/Tag, insbesonder zwischen 0,1 und 5 mg/kg/Tag, liegen.
# (§2) Die genannten neuroleptischen Eigenschaften können an ausgewachsenen Ratten oder Totenkopf-Aeffchen (squirrel monkeys) nachgewiesen werden. Die Tiere sind zur Betätigung eines Hebels trainiert, wodurch sie einem auf den Fuss verabreichten elektrischen Schock ausweichen können. Jeder Hebeldruck verschiebt den Schock um 30 Sekunden. Vergisst das Tier den Hebel innerhalb des genannten Zeitintervalls einmal zu drücken, so werden alle 15 Sekunden kurze (0,5 sec.) elektrische Schocks abgegeben, bis das Tier den Hebel wieder betätigt. […]
# [1] = test system: Totenkopf-Aeffchen (squirrel monkeys); assay: Sidman avoidance test (conditioned avoidance, lever press to postpone foot shock), monkeys; conditions: Saimiri, in Primates, compound given 30, 90 and 210 min before the test, total dose, read-out: Gesamtdosis, welche die Vermeidungs-Reaktionen vermindert
# Description: as §1, §2
smiles,measurement,setting,value
O=C(CCCN1CCC(O)(c2ccc(Cl)cc2)CC1)c1ccc(F)cc1 [Haloperidol],dyskinetische Bewegungen / Dyskinesien,"Totenkopf-Aeffchen; 0,625 mg/kg (low dose), monkeys rated 2, 4 and 6 h after treatment",an fünf Affen feststellbar
same,dyskinetische Bewegungen / Dyskinesien,"Totenkopf-Aeffchen; 1,25 mg/kg, monkeys rated 2, 4 and 6 h after treatment",schwere Dyskinesie
"CN1CCN(C2=Nc3ccccc3Sc3nccn32)CC1 [Beispiel 1, 5-(4-Methylpiperazino)-imidazo[2,1-b][1,3,5]benzothia-diazepin]",minimal effective dose,Ratten,≤ 10 mg/kg
same,minimal effective dose,[1],≤ 10 mg/kg
same,vermehrter Speichelfluss,Totenkopf-Aeffchen; in vivo,nicht festellbar
CN1CCN(C2=Nc3cc(Cl)ccc3Nc3ccccc32)CC1 [Clozapin],dyskinetische Bewegungen / Dyskinesien,"Totenkopf-Aeffchen; 10 mg/kg, monkeys rated 2, 4 and 6 h after treatment",nicht aufgetreten
same,vermehrter Speichelfluss,"Totenkopf-Aeffchen; monkeys rated 2, 4 and 6 h after treatment, doses as in the dyskinesia test",bei jedem untersuchten Affen
